The target in assay [1] is Histone deacetylase 1 (Homo sapiens, UniProt Q13547). Description: Inhibition of HDAC1 (unknown origin).
For assay [2], the target named is Histone deacetylase 8 (Homo sapiens, UniProt Q9BY41). In words: Inhibition of HDAC8 (unknown origin).
For assay [3], the target named is Histone deacetylase 4 (Homo sapiens, UniProt P56524). In words: Inhibition of HDAC4 (unknown origin).
Assay [4] has as its target Dual specificity tyrosine-phosphorylation-regulated kinase 1A (Homo sapiens, UniProt Q13627). In words: Inhibition of DYRK1A (unknown origin).
The target of assay [5] is T1, Amine oxidase [flavin-containing] A (Homo sapiens, UniProt P21397).
T1 sequence (P21397 whole entry): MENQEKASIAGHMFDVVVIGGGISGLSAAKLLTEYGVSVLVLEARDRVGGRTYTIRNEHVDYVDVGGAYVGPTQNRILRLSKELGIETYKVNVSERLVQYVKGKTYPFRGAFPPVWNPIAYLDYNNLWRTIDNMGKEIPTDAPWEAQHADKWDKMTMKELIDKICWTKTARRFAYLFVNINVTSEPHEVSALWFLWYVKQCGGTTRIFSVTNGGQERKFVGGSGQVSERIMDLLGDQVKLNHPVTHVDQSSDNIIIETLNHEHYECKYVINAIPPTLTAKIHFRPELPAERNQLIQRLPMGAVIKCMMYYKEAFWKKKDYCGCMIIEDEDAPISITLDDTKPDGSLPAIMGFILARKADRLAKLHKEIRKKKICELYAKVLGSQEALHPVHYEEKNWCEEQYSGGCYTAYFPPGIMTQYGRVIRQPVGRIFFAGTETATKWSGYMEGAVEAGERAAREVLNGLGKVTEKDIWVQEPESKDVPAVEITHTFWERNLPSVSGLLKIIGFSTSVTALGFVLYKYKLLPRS
Description: Inhibition of MAO-A (unknown origin).

Assay [6] addresses 5-hydroxytryptamine receptor 1A (Homo sapiens, UniProt P08908). Description: Displacement of […] from human 5-HT1A expressed in human HEK cells assessed as inhibition constant by FLIPR assay. It counts as cell-based.
Assay [7] has as its target 5-hydroxytryptamine receptor 1B (Homo sapiens, UniProt P28222). Description: Displacement of […] from human 5-HT1B expressed in human HEK cells assessed as inhibition constant by FLIPR assay. The class given is cell-based.
Assay [8] has as its target 5-hydroxytryptamine receptor 1D (Homo sapiens, UniProt P28221). Description: Binding affinity to 5-HT1DR (unknown origin) assessed as inhibition constant.
Assay [9] deals with 5-hydroxytryptamine receptor 2A (Homo sapiens, UniProt P28223). In words: Displacement of [3H]-LSD from human 5-HT2A expressed in human HEK cells assessed as inhibition constant by FLIPR assay. It counts as cell-based.
In assay [10] the target is T2, 5-hydroxytryptamine receptor 2C (Homo sapiens, UniProt P28335).
T2 sequence (P28335 whole entry): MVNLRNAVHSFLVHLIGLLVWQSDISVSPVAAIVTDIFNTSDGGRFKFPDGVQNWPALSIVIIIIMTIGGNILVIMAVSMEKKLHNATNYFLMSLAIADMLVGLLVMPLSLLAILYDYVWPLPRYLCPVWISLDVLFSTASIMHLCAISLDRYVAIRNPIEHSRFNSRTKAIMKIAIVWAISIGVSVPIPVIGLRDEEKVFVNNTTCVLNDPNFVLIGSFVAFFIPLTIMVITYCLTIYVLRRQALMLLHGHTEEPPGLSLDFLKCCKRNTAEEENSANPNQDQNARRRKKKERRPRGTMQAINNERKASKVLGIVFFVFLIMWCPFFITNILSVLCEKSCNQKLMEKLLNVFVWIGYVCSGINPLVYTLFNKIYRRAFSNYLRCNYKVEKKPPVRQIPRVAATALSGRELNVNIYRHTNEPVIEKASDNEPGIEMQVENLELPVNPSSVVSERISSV
In words: Displacement of [3H]-LSD from human 5-HT2C expressed in human HEK cells assessed as inhibition constant by FLIPR assay. It counts as cell-based.

In assay [11] the target is T3, 5-hydroxytryptamine receptor 3A (Homo sapiens, UniProt P46098).
T3 sequence (P46098 whole entry): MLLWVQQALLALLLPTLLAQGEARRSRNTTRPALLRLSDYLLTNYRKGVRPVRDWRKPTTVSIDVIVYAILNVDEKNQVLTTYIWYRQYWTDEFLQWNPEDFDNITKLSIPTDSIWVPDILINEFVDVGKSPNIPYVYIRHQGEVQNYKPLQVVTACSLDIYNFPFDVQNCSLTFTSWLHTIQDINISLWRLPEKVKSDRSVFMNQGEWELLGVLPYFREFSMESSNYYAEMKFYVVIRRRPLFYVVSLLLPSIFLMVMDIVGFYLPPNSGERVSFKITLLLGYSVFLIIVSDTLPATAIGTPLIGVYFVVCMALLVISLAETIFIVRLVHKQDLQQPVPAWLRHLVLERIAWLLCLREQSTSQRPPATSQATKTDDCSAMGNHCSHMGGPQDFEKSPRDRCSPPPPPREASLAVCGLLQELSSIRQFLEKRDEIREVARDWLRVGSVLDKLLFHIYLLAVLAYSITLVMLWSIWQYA
Description: Binding affinity to 5-HT3R (unknown origin) assessed as inhibition constant.

The target in assay [12] is 5-hydroxytryptamine receptor 5A (Homo sapiens, UniProt P47898). In words: Binding affinity to 5-HT5AR (unknown origin) assessed as inhibition constant.
Assay [13] concerns the target 5-hydroxytryptamine receptor 6 (Homo sapiens, UniProt P50406). Description: Binding affinity to 5-HT6R (unknown origin) assessed as inhibition constant.
The target of assay [14] is 5-hydroxytryptamine receptor 7 (Homo sapiens, UniProt P34969). Description: Displacement of […] from human 5-HT7 expressed in human HEK cells assessed as inhibition constant by FLIPR assay. It counts as cell-based.
Chain of 5-hydroxytryptamine receptor 7 (P34969 whole entry): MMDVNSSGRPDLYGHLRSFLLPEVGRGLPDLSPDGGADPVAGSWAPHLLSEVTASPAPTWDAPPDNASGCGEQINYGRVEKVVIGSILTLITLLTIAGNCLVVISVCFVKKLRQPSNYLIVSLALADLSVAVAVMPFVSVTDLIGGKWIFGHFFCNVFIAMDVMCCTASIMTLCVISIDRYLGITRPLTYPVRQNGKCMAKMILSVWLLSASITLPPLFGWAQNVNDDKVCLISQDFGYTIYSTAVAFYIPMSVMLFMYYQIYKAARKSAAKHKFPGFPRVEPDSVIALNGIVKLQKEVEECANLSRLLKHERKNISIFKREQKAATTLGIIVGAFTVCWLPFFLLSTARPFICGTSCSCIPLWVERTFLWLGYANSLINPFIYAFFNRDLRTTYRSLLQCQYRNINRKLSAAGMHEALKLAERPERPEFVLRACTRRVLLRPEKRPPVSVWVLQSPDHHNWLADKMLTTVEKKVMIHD

Chain of 5-hydroxytryptamine receptor 2A (P28223 whole entry): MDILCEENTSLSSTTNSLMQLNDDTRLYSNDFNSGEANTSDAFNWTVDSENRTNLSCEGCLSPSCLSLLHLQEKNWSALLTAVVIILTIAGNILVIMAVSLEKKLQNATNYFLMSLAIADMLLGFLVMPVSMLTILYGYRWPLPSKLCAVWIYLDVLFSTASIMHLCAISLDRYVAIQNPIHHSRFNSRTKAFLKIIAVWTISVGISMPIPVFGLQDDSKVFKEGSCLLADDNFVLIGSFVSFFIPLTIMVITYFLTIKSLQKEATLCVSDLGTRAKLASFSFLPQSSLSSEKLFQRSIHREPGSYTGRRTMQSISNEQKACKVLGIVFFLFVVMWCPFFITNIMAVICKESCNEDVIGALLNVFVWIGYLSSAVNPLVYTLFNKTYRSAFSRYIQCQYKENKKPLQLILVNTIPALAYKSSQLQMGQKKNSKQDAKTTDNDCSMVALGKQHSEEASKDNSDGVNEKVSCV
Chain of Histone deacetylase 1 (Q13547 whole entry): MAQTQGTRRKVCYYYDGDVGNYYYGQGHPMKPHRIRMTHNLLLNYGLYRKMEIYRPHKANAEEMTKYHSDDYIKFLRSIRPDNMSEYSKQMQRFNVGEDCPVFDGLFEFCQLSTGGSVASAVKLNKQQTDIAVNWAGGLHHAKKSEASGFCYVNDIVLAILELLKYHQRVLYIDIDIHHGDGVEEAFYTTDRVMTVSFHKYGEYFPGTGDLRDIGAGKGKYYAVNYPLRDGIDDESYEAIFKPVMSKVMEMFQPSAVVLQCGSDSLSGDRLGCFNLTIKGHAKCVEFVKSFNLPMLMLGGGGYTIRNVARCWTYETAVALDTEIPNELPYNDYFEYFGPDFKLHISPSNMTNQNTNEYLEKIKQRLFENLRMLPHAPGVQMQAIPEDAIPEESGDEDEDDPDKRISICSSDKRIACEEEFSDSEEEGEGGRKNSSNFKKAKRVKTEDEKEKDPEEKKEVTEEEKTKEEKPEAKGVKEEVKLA
Chain of Histone deacetylase 4 (P56524 whole entry): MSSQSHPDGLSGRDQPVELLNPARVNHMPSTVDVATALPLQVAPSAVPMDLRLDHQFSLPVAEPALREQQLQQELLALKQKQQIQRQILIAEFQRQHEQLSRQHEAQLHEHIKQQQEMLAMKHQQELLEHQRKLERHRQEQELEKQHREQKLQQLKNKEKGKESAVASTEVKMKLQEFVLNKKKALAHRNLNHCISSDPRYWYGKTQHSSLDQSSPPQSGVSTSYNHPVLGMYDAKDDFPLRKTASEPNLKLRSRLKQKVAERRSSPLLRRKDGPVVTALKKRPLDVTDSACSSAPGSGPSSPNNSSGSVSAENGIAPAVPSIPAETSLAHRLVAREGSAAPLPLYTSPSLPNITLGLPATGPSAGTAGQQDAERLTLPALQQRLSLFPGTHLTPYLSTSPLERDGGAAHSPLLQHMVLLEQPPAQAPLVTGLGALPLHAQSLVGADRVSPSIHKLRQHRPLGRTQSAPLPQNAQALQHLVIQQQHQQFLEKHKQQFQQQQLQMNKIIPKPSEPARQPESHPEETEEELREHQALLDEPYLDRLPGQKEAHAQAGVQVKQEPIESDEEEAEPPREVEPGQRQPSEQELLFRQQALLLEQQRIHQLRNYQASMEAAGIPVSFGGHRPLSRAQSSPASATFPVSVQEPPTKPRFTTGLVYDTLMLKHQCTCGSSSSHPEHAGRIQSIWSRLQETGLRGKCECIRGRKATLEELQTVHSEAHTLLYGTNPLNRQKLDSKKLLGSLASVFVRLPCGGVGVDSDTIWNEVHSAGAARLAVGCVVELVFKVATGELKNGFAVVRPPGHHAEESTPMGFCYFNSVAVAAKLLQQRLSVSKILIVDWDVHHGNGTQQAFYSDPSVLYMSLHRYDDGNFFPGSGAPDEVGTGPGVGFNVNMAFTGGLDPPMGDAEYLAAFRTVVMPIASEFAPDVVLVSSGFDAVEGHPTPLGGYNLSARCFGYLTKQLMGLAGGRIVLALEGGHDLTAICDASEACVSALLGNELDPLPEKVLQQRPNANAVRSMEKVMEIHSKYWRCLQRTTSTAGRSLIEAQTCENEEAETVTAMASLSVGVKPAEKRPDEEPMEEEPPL
Chain of 5-hydroxytryptamine receptor 1B (P28222 whole entry): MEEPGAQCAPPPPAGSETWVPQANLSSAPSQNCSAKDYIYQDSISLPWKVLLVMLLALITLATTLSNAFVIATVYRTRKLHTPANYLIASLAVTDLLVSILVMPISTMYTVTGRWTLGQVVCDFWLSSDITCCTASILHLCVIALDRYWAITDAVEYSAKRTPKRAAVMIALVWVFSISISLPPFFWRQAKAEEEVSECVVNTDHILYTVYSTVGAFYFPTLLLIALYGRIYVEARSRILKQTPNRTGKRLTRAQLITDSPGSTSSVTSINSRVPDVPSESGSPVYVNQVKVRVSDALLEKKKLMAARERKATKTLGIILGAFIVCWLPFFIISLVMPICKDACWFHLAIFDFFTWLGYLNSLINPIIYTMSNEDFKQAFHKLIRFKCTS
Chain of 5-hydroxytryptamine receptor 1D (P28221 whole entry): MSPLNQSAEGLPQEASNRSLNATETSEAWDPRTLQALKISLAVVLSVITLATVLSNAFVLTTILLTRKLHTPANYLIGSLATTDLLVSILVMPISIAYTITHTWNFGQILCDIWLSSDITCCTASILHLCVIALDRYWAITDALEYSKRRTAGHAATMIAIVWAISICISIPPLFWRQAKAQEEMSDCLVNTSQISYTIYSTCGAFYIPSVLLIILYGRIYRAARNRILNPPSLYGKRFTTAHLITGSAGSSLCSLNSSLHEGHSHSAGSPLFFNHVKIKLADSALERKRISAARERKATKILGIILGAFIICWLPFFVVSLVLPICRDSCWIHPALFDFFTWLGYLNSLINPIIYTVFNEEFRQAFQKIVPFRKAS
Chain of 5-hydroxytryptamine receptor 1A (P08908 whole entry): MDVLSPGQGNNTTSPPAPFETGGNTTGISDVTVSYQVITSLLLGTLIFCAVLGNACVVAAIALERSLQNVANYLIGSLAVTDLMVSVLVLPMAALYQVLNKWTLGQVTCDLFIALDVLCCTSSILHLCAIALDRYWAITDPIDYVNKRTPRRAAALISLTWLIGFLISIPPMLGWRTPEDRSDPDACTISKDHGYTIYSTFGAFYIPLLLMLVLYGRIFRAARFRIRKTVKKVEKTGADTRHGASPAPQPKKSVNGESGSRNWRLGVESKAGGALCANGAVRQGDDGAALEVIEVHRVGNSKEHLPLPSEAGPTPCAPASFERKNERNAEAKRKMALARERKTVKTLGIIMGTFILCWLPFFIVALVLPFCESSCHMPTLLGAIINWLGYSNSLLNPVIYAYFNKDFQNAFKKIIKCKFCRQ
Chain of Histone deacetylase 8 (Q9BY41 whole entry): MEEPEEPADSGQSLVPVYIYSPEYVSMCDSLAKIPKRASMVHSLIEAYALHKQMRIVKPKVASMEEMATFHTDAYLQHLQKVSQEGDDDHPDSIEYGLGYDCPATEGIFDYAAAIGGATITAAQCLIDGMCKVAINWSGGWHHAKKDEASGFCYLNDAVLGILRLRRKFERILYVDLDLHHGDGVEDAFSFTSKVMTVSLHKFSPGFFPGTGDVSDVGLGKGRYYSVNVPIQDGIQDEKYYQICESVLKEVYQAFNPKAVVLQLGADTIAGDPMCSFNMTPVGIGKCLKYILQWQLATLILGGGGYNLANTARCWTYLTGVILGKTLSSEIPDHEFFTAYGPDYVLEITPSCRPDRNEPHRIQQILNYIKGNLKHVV
Chain of 5-hydroxytryptamine receptor 5A (P47898 whole entry): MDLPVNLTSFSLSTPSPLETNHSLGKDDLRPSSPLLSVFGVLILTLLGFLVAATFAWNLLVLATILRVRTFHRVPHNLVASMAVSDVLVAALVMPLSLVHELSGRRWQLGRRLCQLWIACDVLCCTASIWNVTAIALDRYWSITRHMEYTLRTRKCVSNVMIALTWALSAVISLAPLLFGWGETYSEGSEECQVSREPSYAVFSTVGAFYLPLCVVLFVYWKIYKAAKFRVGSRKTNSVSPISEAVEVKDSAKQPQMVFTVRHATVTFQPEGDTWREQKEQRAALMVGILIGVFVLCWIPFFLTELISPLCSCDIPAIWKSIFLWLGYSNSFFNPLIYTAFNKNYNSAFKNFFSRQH
Chain of 5-hydroxytryptamine receptor 6 (P50406 whole entry): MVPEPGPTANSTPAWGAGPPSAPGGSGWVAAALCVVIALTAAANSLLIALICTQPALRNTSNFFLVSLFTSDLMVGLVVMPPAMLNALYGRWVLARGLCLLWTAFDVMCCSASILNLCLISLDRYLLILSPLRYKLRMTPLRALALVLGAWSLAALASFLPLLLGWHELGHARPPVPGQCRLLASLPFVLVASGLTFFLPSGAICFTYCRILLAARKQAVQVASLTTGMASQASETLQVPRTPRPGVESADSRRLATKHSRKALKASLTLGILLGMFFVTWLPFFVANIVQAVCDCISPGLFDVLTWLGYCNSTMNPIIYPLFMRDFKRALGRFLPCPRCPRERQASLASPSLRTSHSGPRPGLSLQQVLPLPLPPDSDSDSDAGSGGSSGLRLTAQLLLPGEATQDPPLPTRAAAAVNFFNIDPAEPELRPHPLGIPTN

On to `COc1ccc(-c2nc(C(=O)NCc3ccc(C(=O)NO)cc3)cc3c2[nH]c2ccccc23)cc1`, for which the results for the IC50 in [1], in assay [2] and in assay [3] were 0.0041 µM, over 1 µM and over 1 µM, respectively.
As for `COc1ccc2c3c([nH]c2c1)C(C)=NCC3` [HARMALINE], the results for the IC50 in assay [4] and in [5] were 4.6 µM and 0.0025 µM, respectively. The Ki in assay [6] is over 10 µM; in assay [7], over 10 µM; in assay [8], over 10 µM; in assay [9], 5 µM; in [10], 9.4 µM; in assay [11] it was over 10 µM. Moreover, the results for the Ki in [12], in [13] and in assay [14] were over 10 µM, 1.5 µM and 5.5 µM, respectively.

(Values after ChEMBL document CHEMBL5233266, “β-Carboline as a Privileged Scaffold for Multitarget Strategies in Alzheimer's Disease Therapy” (J Med Chem, 2021).)
